Measurements published in patent publication US20250152592A1, “PHARMACEUTICAL COMPOSITION COMPRISING ALLOPURINOL, FEBUXOSTAT OR PHARMACEUTICALLY ACCEPTABLE SALT THEREOF FOR PREVENTION OR TREATMENT OF CHRONIC KIDNEY DISEASE IN SUBJECT HAVING HIGH SERUM URIC ACID CONCENTRATION” (Indream Healthcare Inc., priority 2022, published 2025).

Assays:
[1] = system: patients with gout and a history of major cardiovascular diseases; assay: eGFR over time by average serum uric acid concentration, analysis of clinical trial data; format: in vivo, human; conditions: for eGFR Mean (95% CI): allopurinol group
Procedure: (§1) In order to evaluate non-inferiority of febuxostat to allopurinol related to cardiovascular risk, a clinical trial was designed and proceeded.
(§2) A multicenter, randomized, double-blind non-inferiority trial was performed. The details of the clinical trial design have been published previously. An independent data and safety monitoring committee with access to unblinded data monitored the clinical trial. The statistical analysis for the data and the safety monitoring committee was performed by an independent statistical group (WebbWrites).
(§3) The patients were regarded as having a history of major cardiovascular diseases, if they had myocardial infarction, hospitalization for unstable angina, stroke, hospitalization for transient ischemic attack, peripheral vascular disease, or diabetes mellitus symptoms. All participants provided a prior informed consent form.
(§4) The patients were randomly assigned so that they received febuxostat or allopurinol administered once a day in a double-blind manner. The randomization was stratified according to the estimated creatinine clearance at baseline (patient group having an estimated creatinine clearance ≥60 ml per minute vs patient group having an estimated creatinine clearance ≥30 and <60 ml per minute).
(§5) The dose of allopurinol was modified according to a kidney function. The patients with the estimated creatinine clearance 60 ml or more per minute i) initially received allopurinol at a dose of 300 mg once a day, and the dose was increased in 100 mg increments monthly until the patient had the serum uric acid concentration of less than 6.0 mg per deciliter or the dosage of allopurinol was 600 mg once a day. The patient having the estimated creatinine clearance of 30 ml or more and less than 60 ml per minute initially received 200 mg of allopurinol, and then the dose was increased in 100 mg increments until the patient either had the serum uric acid concentration of less than 6.0 mg per deciliter or was receiving the allopurinol dose of 400 mg once daily.
(§6) The dose of febuxostat was not modified according to the kidney function. The patients who were randomly assigned to receive febuxostat initially received 40 mg once a daily, and continued to receive the same dosage if the serum uric acid concentration was less than 6.0 mg per deciliter after 2 weeks of the treatment. If the serum uric acid concentration was higher than 6.0 mg per deciliter at 2nd week visit, the dose of febuxostat was increased to 80 mg once daily for the remainder of the trial.
(§7) During the period, the administration of a double-blind and double-dummy trial medications was guided by an interactive voice-response system which was a procedure to prevent unblinding for the patients whose dose was not adjusted. After completing dose adjustment, the urate level was concealed from the investigators, and the treatment was managed throughout the trial using the interactive voice-response system.
(§8) Outpatient visits were conducted according to the following schedule: during screening and randomization, and at 2, 4, 6, 8, 10, 12, and 24 weeks after the randomization, and every 6 months during the subsequent years of the trial. The patients with reduced kidney function or, the patients aged 65 years or older at randomization were visited at 9 and 15 months for monitoring the serum chemical profile. If the patient agreed to be monitored, but would not return for study visit, telephone contact was made, but such method was not preferred or recommended.
In order to confirm the effect of allopurinol and febuxostat on the kidney disease, the data obtained in the clinical trial described above was analyzed.

[2] = system: patients with gout and a history of major cardiovascular diseases; assay: clinical trial febuxostat vs allopurinol: serum uric acid, gout flare, treatment discontinuation; format: in vivo, human; conditions: overall, during the trial
Procedure: as §1, §2, §3, §4, §5, §6, §7, §8

[3] = cited from earlier work

SMILES: Oc1ncnc2[nH]ncc12 [allopurinol]
- eGFR Mean (95% CI) ([1]; No congestive cardiac failure history, Average UA <6, Month 3): 67.32 (66.24-68.40) ml/min/1.73 m^2
- eGFR Mean (95% CI) ([1]; No congestive cardiac failure history, Average UA <6, Month 12): 68.74 (67.63-69.86) ml/min/1.73 m^2
- eGFR Mean (95% CI) ([1]; No congestive cardiac failure history, Average UA <6, Month 18): 68.64 (67.39-69.88) ml/min/1.73 m^2
- eGFR Mean (95% CI) ([1]; No congestive cardiac failure history, Average UA <6, Month 24): 68.73 (67.42-70.03) ml/min/1.73 m^2
- eGFR Mean (95% CI) ([1]; No congestive cardiac failure history, Average UA <6, Month 30): 69.45 (68.01-70.89) ml/min/1.73 m^2
- eGFR Mean (95% CI) ([1]; No congestive cardiac failure history, Average UA <6, Month 36): 68.02 (66.49-69.55) ml/min/1.73 m^2
- eGFR Mean (95% CI) ([1]; No congestive cardiac failure history, Average UA <6, Month 42): 67.59 (65.93-69.25) ml/min/1.73 m^2
- eGFR Mean (95% CI) ([1]; No congestive cardiac failure history, Average UA <6, Month 48): 68.44 (66.56-70.31) ml/min/1.73 m^2
- eGFR Mean (95% CI) ([1]; No congestive cardiac failure history, Average UA <6, Month 54): 67.90 (65.79-70.00) ml/min/1.73 m^2
- eGFR Mean (95% CI) ([1]; No congestive cardiac failure history, Average UA <6, Month 60): 68.53 (66.05-71.01) ml/min/1.73 m^2
- eGFR Mean (95% CI) ([1]; No congestive cardiac failure history, Average UA <6, Week 2): 66.55 (65.48-67.62) ml/min/1.73 m^2
- eGFR Mean (95% CI) ([1]; No congestive cardiac failure history, Average UA ≥6, Baseline): 66.51 (64.92-68.09) ml/min/1.73 m^2
- eGFR Mean (95% CI) ([1]; No congestive cardiac failure history, Average UA ≥6, Month 12): 66.77 (65.07-68.46) ml/min/1.73 m^2
- eGFR Mean (95% CI) ([1]; No congestive cardiac failure history, Average UA ≥6, Month 18): 66.07 (64.15-67.99) ml/min/1.73 m^2
- eGFR Mean (95% CI) ([1]; No congestive cardiac failure history, Average UA ≥6, Month 24): 65.54 (63.37-67.72) ml/min/1.73 m^2
- eGFR Mean (95% CI) ([1]; No congestive cardiac failure history, Average UA ≥6, Month 30): 65.30 (62.89-67.70) ml/min/1.73 m^2
- eGFR Mean (95% CI) ([1]; No congestive cardiac failure history, Average UA ≥6, Month 36): 65.27 (62.40-68.13) ml/min/1.73 m^2
- eGFR Mean (95% CI) ([1]; No congestive cardiac failure history, Average UA ≥6, Month 42): 63.38 (60.35-66.41) ml/min/1.73 m^2
- eGFR Mean (95% CI) ([1]; No congestive cardiac failure history, Average UA ≥6, Month 48): 63.38 (59.80-66.95) ml/min/1.73 m^2
- eGFR Mean (95% CI) ([1]; No congestive cardiac failure history, Average UA ≥6, Month 54): 66.44 (62.69-70.18) ml/min/1.73 m^2
- eGFR Mean (95% CI) ([1]; No congestive cardiac failure history, Average UA ≥6, Month 60): 63.14 (59.01-67.28) ml/min/1.73 m^2
- eGFR Mean (95% CI) ([1]; No congestive cardiac failure history, Average UA ≥6, Week 2): 66.92 (65.28-68.56) ml/min/1.73 m^2
- eGFR Mean (95% CI) ([1]; SBP <130, Average UA <6, Baseline): 65.08 (63.67-66.50) ml/min/1.73 m^2
- eGFR Mean (95% CI) ([1]; SBP <130, Average UA <6, Month 3): 66.19 (64.73-67.66) ml/min/1.73 m^2
- eGFR Mean (95% CI) ([1]; SBP <130, Average UA <6, Month 6): 66.44 (64.96-67.92) ml/min/1.73 m^2
- eGFR Mean (95% CI) ([1]; SBP <130, Average UA <6, Month 12): 67.55 (66.04-69.06) ml/min/1.73 m^2
- eGFR Mean (95% CI) ([1]; SBP <130, Average UA <6, Month 18): 67.41 (65.73-69.08) ml/min/1.73 m^2
- eGFR Mean (95% CI) ([1]; SBP <130, Average UA <6, Month 24): 67.26 (65.46-69.07) ml/min/1.73 m^2
- eGFR Mean (95% CI) ([1]; SBP <130, Average UA <6, Month 30): 68.14 (66.20-70.08) ml/min/1.73 m^2
- eGFR Mean (95% CI) ([1]; SBP <130, Average UA <6, Month 36): 67.41 (65.30-69.51) ml/min/1.73 m^2
- eGFR Mean (95% CI) ([1]; SBP <130, Average UA <6, Month 42): 67.67 (65.45-69.89) ml/min/1.73 m^2
- eGFR Mean (95% CI) ([1]; SBP <130, Average UA <6, Month 48): 67.55 (64.98-70.13) ml/min/1.73 m^2
- eGFR Mean (95% CI) ([1]; SBP <130, Average UA <6, Month 54): 67.54 (64.81-70.27) ml/min/1.73 m^2
- eGFR Mean (95% CI) ([1]; SBP <130, Average UA <6, Month 60): 66.85 (63.63-70.06) ml/min/1.73 m^2
- eGFR Mean (95% CI) ([1]; SBP <130, Average UA <6, Week 2): 65.12 (63.70-66.55) ml/min/1.73 m^2
- eGFR Mean (95% CI) ([1]; SBP <130, Average UA ≥6, Baseline): 61.00 (58.76-63.25) ml/min/1.73 m^2
- eGFR Mean (95% CI) ([1]; SBP <130, Average UA ≥6, Month 3): 62.77 (60.42-65.12) ml/min/1.73 m^2
- eGFR Mean (95% CI) ([1]; SBP <130, Average UA ≥6, Month 6): 62.65 (60.33-64.97) ml/min/1.73 m^2
- eGFR Mean (95% CI) ([1]; SBP <130, Average UA ≥6, Month 12): 62.21 (59.86-64.55) ml/min/1.73 m^2
- eGFR Mean (95% CI) ([1]; SBP <130, Average UA ≥6, Month 18): 62.34 (59.64-65.04) ml/min/1.73 m^2
- eGFR Mean (95% CI) ([1]; SBP <130, Average UA ≥6, Month 24): 60.72 (57.61-63.83) ml/min/1.73 m^2
- eGFR Mean (95% CI) ([1]; SBP <130, Average UA ≥6, Month 30): 62.43 (59.06-65.81) ml/min/1.73 m^2
- eGFR Mean (95% CI) ([1]; SBP <130, Average UA ≥6, Month 36): 61.08 (57.19-64.97) ml/min/1.73 m^2
- eGFR Mean (95% CI) ([1]; SBP <130, Average UA ≥6, Month 42): 60.98 (56.66-65.31) ml/min/1.73 m^2
- eGFR Mean (95% CI) ([1]; SBP <130, Average UA ≥6, Month 48): 64.66 (59.55-69.76) ml/min/1.73 m^2
- eGFR Mean (95% CI) ([1]; SBP <130, Average UA ≥6, Month 54): 64.80 (59.14-70.46) ml/min/1.73 m^2
- eGFR Mean (95% CI) ([1]; SBP <130, Average UA ≥6, Month 60): 65.01 (58.65-71.37) ml/min/1.73 m^2
- eGFR Mean (95% CI) ([1]; SBP <130, Average UA ≥6, Week 2): 62.24 (60.01-64.47) ml/min/1.73 m^2
- prevention or treatment of chronic kidney disease when serum uric acid maintained below 6 ([1]; blood glucose ≥126 mg/dl, DBP ≤80 mm/Hg, SBP ≤130 mm/Hg, or no congestive cardiac failure): effectively prevented or treated
- rate of gout flare [2]: 0.63 per patient-year
- drug-induced nephrotoxicity ([3]; Am Fam Physician. 2008 September): causes acute interstitial nephritis
- effect on kidney function ([3]; Kaohsiung J Med Sci. 2005 May;21(5):228-32): worsens kidney function
- acute renal failure reported more often ([3]; post-marketing study, Arthritis Research & Therapy volume 21, Article number: 229 (2019)): 3.3 times
